Assays:
Carbonic anhydrase 9 = Carbonic anhydrase 9 (Homo sapiens, UniProt Q16790); assay: Inhibition of human CA9 preincubated for 15 mins by phenol red dye based stopped flow CO2 hydration assay
SF-539 = assay: Antiproliferative activity against human SF-539 cells assessed as cell growth inhibition at 10 uM incubated for 24 hrs by sulforhodamine B assay; type: functional; conditions: read-out: GI
CCRF-CEM = assay: Antiproliferative activity against human CCRF-CEM cells assessed as cell growth inhibition at 10 uM incubated for 24 hrs by sulforhodamine B assay; type: functional; conditions: read-out: GI
K562 = assay: Antiproliferative activity against human K562 cells assessed as cell growth inhibition at 10 uM incubated for 24 hrs by sulforhodamine B assay; type: functional; conditions: read-out: GI
MOLT-4 = assay: Antiproliferative activity against human MOLT-4 cells assessed as cell growth inhibition at 10 uM incubated for 24 hrs by sulforhodamine B assay; type: functional; conditions: read-out: GI
RPMI-8226 = assay: Antiproliferative activity against human RPMI-8226 cells assessed as cell growth inhibition at 10 uM incubated for 24 hrs by sulforhodamine B assay; type: functional; conditions: read-out: GI
SR = assay: Antiproliferative activity against human SR cells assessed as cell growth inhibition at 10 uM incubated for 24 hrs by sulforhodamine B assay; type: functional; conditions: read-out: GI
A549 = assay: Antiproliferative activity against human A549 cells assessed as cell growth inhibition at 10 uM incubated for 24 hrs by sulforhodamine B assay; type: functional; conditions: read-out: GI
HOP-62 = assay: Antiproliferative activity against human HOP-62 cells assessed as cell growth inhibition at 10 uM incubated for 24 hrs by sulforhodamine B assay; type: functional; conditions: read-out: GI
HOP-92 = assay: Antiproliferative activity against human HOP-92 cells assessed as cell growth inhibition at 10 uM incubated for 24 hrs by sulforhodamine B assay; type: functional; conditions: read-out: GI
NCI-H226 = assay: Antiproliferative activity against human NCI-H226 cells assessed as cell growth inhibition at 10 uM incubated for 24 hrs by sulforhodamine B assay; type: functional; conditions: read-out: GI
NCI-H23 = assay: Antiproliferative activity against human NCI-H23 cells assessed as cell growth inhibition at 10 uM incubated for 24 hrs by sulforhodamine B assay; type: functional; conditions: read-out: GI
NCI-H460 = assay: Antiproliferative activity against human NCI-H460 cells assessed as cell growth inhibition at 10 uM incubated for 24 hrs by sulforhodamine B assay; type: functional; conditions: read-out: GI
NCI-H522 = assay: Antiproliferative activity against human NCI-H522 cells assessed as cell growth inhibition at 10 uM incubated for 24 hrs by sulforhodamine B assay; type: functional; conditions: read-out: GI
HCT-116 = assay: Antiproliferative activity against human HCT-116 cells assessed as cell growth inhibition at 10 uM incubated for 24 hrs by sulforhodamine B assay; type: functional; conditions: read-out: GI
HCT-15 = assay: Antiproliferative activity against human HCT-15 cells assessed as cell growth inhibition at 10 uM incubated for 24 hrs by sulforhodamine B assay; type: functional; conditions: read-out: GI
HT-29 = assay: Antiproliferative activity against human HT-29 cells assessed as cell growth inhibition at 10 uM incubated for 24 hrs by sulforhodamine B assay; type: functional; conditions: read-out: GI
KM12 = assay: Antiproliferative activity against human KM12 cells assessed as cell growth inhibition at 10 uM incubated for 24 hrs by sulforhodamine B assay; type: functional; conditions: read-out: GI
SW-620 = assay: Antiproliferative activity against human SW-620 cells assessed as cell growth inhibition at 10 uM incubated for 24 hrs by sulforhodamine B assay; type: functional; conditions: read-out: GI
SF-268 = assay: Antiproliferative activity against human SF-268 cells assessed as cell growth inhibition at 10 uM incubated for 24 hrs by sulforhodamine B assay; type: functional; conditions: read-out: GI
SF-295 = assay: Antiproliferative activity against human SF-295 cells assessed as cell growth inhibition at 10 uM incubated for 24 hrs by sulforhodamine B assay; type: functional; conditions: read-out: GI
SNB-19 = assay: Antiproliferative activity against human SNB-19 cells assessed as cell growth inhibition at 10 uM incubated for 24 hrs by sulforhodamine B assay; type: functional; conditions: read-out: GI
SNB-75 = assay: Antiproliferative activity against human SNB-75 cells assessed as cell growth inhibition at 10 uM incubated for 24 hrs by sulforhodamine B assay; type: functional; conditions: read-out: GI
U-251 = assay: Antiproliferative activity against human U-251 cells assessed as cell growth inhibition at 10 uM incubated for 24 hrs by sulforhodamine B assay; type: functional; conditions: read-out: GI
LOX IMVI = assay: Antiproliferative activity against human LOX IMVI cells assessed as cell growth inhibition at 10 uM incubated for 24 hrs by sulforhodamine B assay; type: functional; conditions: read-out: GI
Malme-3M = assay: Antiproliferative activity against human Malme-3M cells assessed as cell growth inhibition at 10 uM incubated for 24 hrs by sulforhodamine B assay; type: functional; conditions: read-out: GI
M14 = assay: Antiproliferative activity against human M14 cells assessed as cell growth inhibition at 10 uM incubated for 24 hrs by sulforhodamine B assay; type: functional; conditions: read-out: GI
MDA-MB-435 = assay: Antiproliferative activity against human MDA-MB-435 cells assessed as cell growth inhibition at 10 uM incubated for 24 hrs by sulforhodamine B assay; type: functional; conditions: read-out: GI
SK-MEL-28 = assay: Antiproliferative activity against human SK-MEL-28 cells assessed as cell growth inhibition at 10 uM incubated for 24 hrs by sulforhodamine B assay; type: functional; conditions: read-out: GI
SK-MEL-5 = assay: Antiproliferative activity against human SK-MEL-5 cells assessed as cell growth inhibition at 10 uM incubated for 24 hrs by sulforhodamine B assay; type: functional; conditions: read-out: GI
UACC-62 = assay: Antiproliferative activity against human UACC-62 cells assessed as cell growth inhibition at 10 uM incubated for 24 hrs by sulforhodamine B assay; type: functional; conditions: read-out: GI
IGROV-1 = assay: Antiproliferative activity against human IGROV-1 cells assessed as cell growth inhibition at 10 uM incubated for 24 hrs by sulforhodamine B assay; type: functional; conditions: read-out: GI
OVCAR-3 = assay: Antiproliferative activity against human OVCAR-3 cells assessed as cell growth inhibition at 10 uM incubated for 24 hrs by sulforhodamine B assay; type: functional; conditions: read-out: GI
OVCAR-4 = assay: Antiproliferative activity against human OVCAR-4 cells assessed as cell growth inhibition at 10 uM incubated for 24 hrs by sulforhodamine B assay; type: functional; conditions: read-out: GI
OVCAR-8 = assay: Antiproliferative activity against human OVCAR-8 cells assessed as cell growth inhibition at 10 uM incubated for 24 hrs by sulforhodamine B assay; type: functional; conditions: read-out: GI
NCI/ADR-RES = assay: Antiproliferative activity against human NCI-ADR-RES cells assessed as cell growth inhibition at 10 uM incubated for 24 hrs by sulforhodamine B assay; type: functional; conditions: read-out: GI
786-0 = assay: Antiproliferative activity against human 786-0 cells assessed as cell growth inhibition at 10 uM incubated for 24 hrs by sulforhodamine B assay; type: functional; conditions: read-out: GI
ACHN = assay: Antiproliferative activity against human ACHN cells assessed as cell growth inhibition at 10 uM incubated for 24 hrs by sulforhodamine B assay; type: functional; conditions: read-out: GI
CAKI-1 = assay: Antiproliferative activity against human CAKI-1 cells assessed as cell growth inhibition at 10 uM incubated for 24 hrs by sulforhodamine B assay; type: functional; conditions: read-out: GI
RXF 393 = assay: Antiproliferative activity against human RXF 393 cells assessed as cell growth inhibition at 10 uM incubated for 24 hrs by sulforhodamine B assay; type: functional; conditions: read-out: GI
SN12C = assay: Antiproliferative activity against human SN12C cells assessed as cell growth inhibition at 10 uM incubated for 24 hrs by sulforhodamine B assay; type: functional; conditions: read-out: GI
TK-10 = assay: Antiproliferative activity against human TK-10 cells assessed as cell growth inhibition at 10 uM incubated for 24 hrs by sulforhodamine B assay; type: functional; conditions: read-out: GI
UO-31 = assay: Antiproliferative activity against human UO-31 cells assessed as cell growth inhibition at 10 uM incubated for 24 hrs by sulforhodamine B assay; type: functional; conditions: read-out: GI
PC-3 = assay: Antiproliferative activity against human PC-3 cells assessed as cell growth inhibition at 10 uM incubated for 24 hrs by sulforhodamine B assay; type: functional; conditions: read-out: GI
DU-145 = assay: Antiproliferative activity against human DU-145 cells assessed as cell growth inhibition at 10 uM incubated for 24 hrs by sulforhodamine B assay; type: functional; conditions: read-out: GI
MCF7 [1] = assay: Antiproliferative activity against human MCF7 cells assessed as cell growth inhibition at 10 uM incubated for 24 hrs by sulforhodamine B assay; type: functional; conditions: read-out: GI
BT-549 = assay: Antiproliferative activity against human BT-549 cells assessed as cell growth inhibition at 10 uM incubated for 24 hrs by sulforhodamine B assay; type: functional; conditions: read-out: GI
T47D [2] = assay: Antiproliferative activity against human T47D cells assessed as cell growth inhibition at 10 uM incubated for 24 hrs by sulforhodamine B assay; type: functional; conditions: read-out: GI
MCF7 [3] = assay: Antiproliferative activity against human MCF7 cells assessed as reduction in cell viability incubated for 24 hrs by sulforhodamine B assay; type: functional, cell-based; conditions: MCF7, 24 h
T47D [4] = assay: Antiproliferative activity against human T47D cells assessed as reduction in cell viability incubated for 24 hrs by sulforhodamine B assay; type: functional, cell-based
MDA-MB-231 [5] = assay: Antiproliferative activity against human MDA-MB-231 cells assessed as reduction in cell viability incubated for 24 hrs by sulforhodamine B assay; type: functional, cell-based; conditions: MDA-MB-231, 24 h
MDA-MB-231 [6] = assay: Antiproliferative activity against human MDA-MB-231 cells assessed as cell growth inhibition at 10 uM incubated for 24 hrs by sulforhodamine B assay; type: functional; conditions: read-out: GI

Compound: Cc1ccc(-c2nc(SCC(=O)c3ccccc3)nc(Nc3ccc(S(N)(=O)=O)cc3)c2C#N)cc1
- Ki (Carbonic anhydrase 9): 7.4 nM
- inhibition of growth at 10 µM (SF-539): 81.7%
- inhibition of growth at 10 µM (CCRF-CEM): 18%
- inhibition of growth at 10 µM (K562): 29.9%
- inhibition of growth at 10 µM (MOLT-4): 13.4%
- inhibition of growth at 10 µM (RPMI-8226): 34.6%
- inhibition of growth at 10 µM (SR): 43.1%
- inhibition of growth at 10 µM (A549): 12.6%
- inhibition of growth at 10 µM (HOP-62): 73.8%
- inhibition of growth at 10 µM (HOP-92): 62.4%
- inhibition of growth at 10 µM (NCI-H226): 28.6%
- inhibition of growth at 10 µM (NCI-H23): 65.5%
- inhibition of growth at 10 µM (NCI-H460): 34.8%
- inhibition of growth at 10 µM (NCI-H522): 12.9%
- inhibition of growth at 10 µM (HCT-116): 64.1%
- inhibition of growth at 10 µM (HCT-15): 27.9%
- inhibition of growth at 10 µM (HT-29): 7.65%
- inhibition of growth at 10 µM (KM12): 27.2%
- inhibition of growth at 10 µM (SW-620): 16.2%
- inhibition of growth at 10 µM (SF-268): 23.3%
- inhibition of growth at 10 µM (SF-295): 63.3%
- inhibition of growth at 10 µM (SNB-19): 22.8%
- inhibition of growth at 10 µM (SNB-75): 20%
- inhibition of growth at 10 µM (U-251): 52.6%
- inhibition of growth at 10 µM (LOX IMVI): 84.5%
- inhibition of growth at 10 µM (Malme-3M): 66.4%
- inhibition of growth at 10 µM (M14): 63.3%
- inhibition of growth at 10 µM (MDA-MB-435): 53%
- inhibition of growth at 10 µM (SK-MEL-28): 18.9%
- inhibition of growth at 10 µM (SK-MEL-5): 24.5%
- inhibition of growth at 10 µM (UACC-62): 19.7%
- inhibition of growth at 10 µM (IGROV-1): 13.7%
- inhibition of growth at 10 µM (OVCAR-3): 96%
- inhibition of growth at 10 µM (OVCAR-4): 75.7%
- inhibition of growth at 10 µM (OVCAR-8): 65.4%
- inhibition of growth at 10 µM (NCI/ADR-RES): 18.3%
- inhibition of growth at 10 µM (786-0): 53.7%
- inhibition of growth at 10 µM (ACHN): 10.3%
- inhibition of growth at 10 µM (CAKI-1): 48.5%
- inhibition of growth at 10 µM (RXF 393): 48.2%
- inhibition of growth at 10 µM (SN12C): 37%
- inhibition of growth at 10 µM (TK-10): 32.5%
- inhibition of growth at 10 µM (UO-31): 25.1%
- inhibition of growth at 10 µM (PC-3): 7.4%
- inhibition of growth at 10 µM (DU-145): 39.3%
- inhibition of growth at 10 µM (MCF7 [1]): 34.9%
- inhibition of growth at 10 µM (BT-549): 26.2%
- inhibition of growth at 10 µM (T47D [2]): 16.1%
- IC50 (MCF7 [3]): > 100 µM
- IC50 (T47D [4]): > 100 µM
- IC50 (MDA-MB-231 [5]): > 100 µM
- inhibition of growth at 10 µM (MDA-MB-231 [6]): 67%
